Values of other authors in patent publication US8221990B2, “Screening GPR12 receptor for substances having Nesfatin-1-like action, or which regulate Nesfatin-1 action” (Teijin Pharma Limited, priority 2007, dated 2012).

Biological target: T1, GPR12 (Homo sapiens, UniProt P47775)
T1 sequence (P47775 1-334): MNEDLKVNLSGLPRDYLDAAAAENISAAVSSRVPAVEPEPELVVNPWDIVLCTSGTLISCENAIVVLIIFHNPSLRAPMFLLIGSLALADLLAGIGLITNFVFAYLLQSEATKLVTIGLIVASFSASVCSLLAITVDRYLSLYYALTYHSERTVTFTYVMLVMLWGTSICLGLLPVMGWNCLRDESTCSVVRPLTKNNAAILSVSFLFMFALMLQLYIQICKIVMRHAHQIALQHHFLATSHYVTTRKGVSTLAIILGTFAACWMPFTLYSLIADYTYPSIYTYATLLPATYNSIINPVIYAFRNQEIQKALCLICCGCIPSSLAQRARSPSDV
Conditions: cells in which a GPR12 gene is introduced and expressed; cited from earlier work

Row | SMILES | cytoplasmic calcium ion concentration
1 | CCCCCCCCCCCCC/C=C/[C@@H](O)[C@@H](N)COP(=O)([O-])OCC[N+](C)(C)C [SPC, sphingosylphosphorylcholine] | increase in cytoplasmic calcium ion concentration occurs
2 | CCCCCCCCCCCCC/C=C/[C@@H](O)[C@@H](N)COP(=O)(O)O [S1P, sphingosine 1-phosphate] | increase in cytoplasmic calcium ion concentration occurs
